Laboratory results reported in PubChem BioAssay AID2060502 (Molecular Pharmacology Branch, DTP, NCI, 2025).

Test system: 885724-159-R-J1-PDC complex spheroid viability
Test: Anticancer human tumor 885724-159-R-J1-PDC patient-derived pancreatic adenocarcinoma cell line growth inhibition [GQUAD]
Settings: for IC50: curve of first compound; for viability, T/C: stronger effect = lower value
Outline: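 Viability of tumor cells grown as complex spheroids with endothelial and stromal cells, exposed to drug combinations. Top concentration at or near clinical Cmax (else 10 microM), diluted in half-log increments.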

[1] = second compound 0.0316 µM, first compound 0.0316 µM
[2] = second compound 0.0316 µM, first compound 0.1 µM
[3] = second compound 0.0316 µM, first compound 0.316 µM
[4] = second compound 0.0316 µM, first compound 1 µM
[5] = second compound 0.0316 µM, first compound 3.16 µM
[6] = second compound 0.0316 µM, first compound 10 µM
[7] = second compound 0.1 µM, first compound 0.0316 µM
[8] = second compound 0.1 µM, first compound 0.1 µM
[9] = second compound 0.1 µM, first compound 0.316 µM
[10] = second compound 0.1 µM, first compound 1 µM
[11] = second compound 0.1 µM, first compound 3.16 µM
[12] = second compound 0.1 µM, first compound 10 µM
[13] = second compound 0.316 µM, first compound 0.0316 µM
[14] = second compound 0.316 µM, first compound 0.1 µM
[15] = second compound 0.316 µM, first compound 0.316 µM
[16] = second compound 0.316 µM, first compound 1 µM
[17] = second compound 0.316 µM, first compound 3.16 µM
[18] = second compound 0.316 µM, first compound 10 µM
[19] = second compound 1 µM, first compound 0.0316 µM
[20] = second compound 1 µM, first compound 0.1 µM
[21] = second compound 1 µM, first compound 0.316 µM
[22] = second compound 1 µM, first compound 1 µM
[23] = second compound 1 µM, first compound 3.16 µM
[24] = second compound 1 µM, first compound 10 µM
[25] = second compound 3.16 µM, first compound 0.0316 µM
[26] = second compound 3.16 µM, first compound 0.1 µM
[27] = second compound 3.16 µM, first compound 0.316 µM
[28] = second compound 3.16 µM, first compound 1 µM
[29] = second compound 3.16 µM, first compound 3.16 µM
[30] = second compound 3.16 µM, first compound 10 µM
[31] = second compound 10 µM, first compound 0.0316 µM
[32] = second compound 10 µM, first compound 0.1 µM
[33] = second compound 10 µM, first compound 0.316 µM
[34] = second compound 10 µM, first compound 1 µM
[35] = second compound 10 µM, first compound 3.16 µM
[36] = second compound 10 µM, first compound 10 µM
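Also: spheroids exposed to agents for seven days before readout.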
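For viability, T/C in this document: percent of vehicle control viability where 100% = DMSO wells.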

## COc1cccc2c1C(=O)c1c(O)c3c(c(O)c1C2=O)CC(O)(C(=O)CO)CC3OC1CC(N)C(O)C(C)O1 (stereo not drawn) + Cc1[nH]c2ccc(F)cc2c1-c1nc2c3cccnc3c3ncccc3c2[nH]1
Second compound 0.0316 µM
  IC50: 1.97 µM
Second compound 0.1 µM
  IC50: 2.29 µM
Second compound 0.316 µM
  IC50: 2.49 µM
Second compound 1 µM
  IC50: 2.53 µM
Second compound 3.16 µM
  IC50: 0.0374 µM
Second compound 10 µM
  IC50: 2 µM
[1]
  viability, T/C: 104%
[2]
  viability, T/C: 98.8%
[3]
  viability, T/C: 92%
[4]
  viability, T/C: 71.8%
[5]
  viability, T/C: 34.8%
[6]
  viability, T/C: 5.27%
[7]
  viability, T/C: 119%
[8]
  viability, T/C: 99.5%
[9]
  viability, T/C: 89.2%
[10]
  viability, T/C: 74.7%
[11]
  viability, T/C: 41%
[12]
  viability, T/C: 2.4%
[13]
  viability, T/C: 91%
[14]
  viability, T/C: 96.2%
[15]
  viability, T/C: 86.6%
[16]
  viability, T/C: 64%
[17]
  viability, T/C: 47.8%
[18]
  viability, T/C: 2.12%
[19]
  viability, T/C: 78.2%
[20]
  viability, T/C: 69.3%
[21]
  viability, T/C: 71.5%
[22]
  viability, T/C: 61.2%
[23]
  viability, T/C: 49%
[24]
  viability, T/C: 1.09%
[25]
  viability, T/C: 52.8%
[26]
  viability, T/C: 43.5%
[27]
  viability, T/C: 29.2%
[28]
  viability, T/C: 26.4%
[29]
  viability, T/C: 22.5%
[30]
  viability, T/C: 0.94%
[31]
  viability, T/C: 73.3%
[32]
  viability, T/C: 64.9%
[33]
  viability, T/C: 58.6%
[34]
  viability, T/C: 69.5%
[35]
  viability, T/C: 39%
[36]
  viability, T/C: 1.06%

## Cc1cccc(N(C)C(=O)C2C(O)CCN2c2nc(C)cc(C(F)(F)F)c2C#N)c1 (stereo not drawn) + Cc1[nH]c2ccc(F)cc2c1-c1nc2c3cccnc3c3ncccc3c2[nH]1
Second compound 0.0316 µM
  IC50: > 10 µM
Second compound 0.1 µM
  IC50: > 10 µM
Second compound 0.316 µM
  IC50: > 10 µM
Second compound 1 µM
  IC50: > 10 µM
Second compound 3.16 µM
  IC50: < 0.0316 µM
Second compound 10 µM
  IC50: > 10 µM
[1]
  viability, T/C: 105%
[2]
  viability, T/C: 93.1%
[3]
  viability, T/C: 82.5%
[4]
  viability, T/C: 100%
[5]
  viability, T/C: 94.2%
[6]
  viability, T/C: 93.1%
[7]
  viability, T/C: 91.3%
[8]
  viability, T/C: 95.3%
[9]
  viability, T/C: 104%
[10]
  viability, T/C: 98.6%
[11]
  viability, T/C: 81.8%
[12]
  viability, T/C: 87.8%
[13]
  viability, T/C: 101%
[14]
  viability, T/C: 101%
[15]
  viability, T/C: 97.4%
[16]
  viability, T/C: 79.9%
[17]
  viability, T/C: 83.4%
[18]
  viability, T/C: 86.7%
[19]
  viability, T/C: 71.9%
[20]
  viability, T/C: 70.6%
[21]
  viability, T/C: 77.1%
[22]
  viability, T/C: 66.2%
[23]
  viability, T/C: 81%
[24]
  viability, T/C: 70.8%
[25]
  viability, T/C: 46.6%
[26]
  viability, T/C: 41.4%
[27]
  viability, T/C: 50.8%
[28]
  viability, T/C: 42.6%
[29]
  viability, T/C: 42.1%
[30]
  viability, T/C: 43%
[31]
  viability, T/C: 66.2%
[32]
  viability, T/C: 68.3%
[33]
  viability, T/C: 64.8%
[34]
  viability, T/C: 69.1%
[35]
  viability, T/C: 80.9%
[36]
  viability, T/C: 82.7%

## CC(=O)O[C@H]1C(=O)[C@@]2(C)[C@H]([C@H](OC(=O)c3ccccc3)[C@]3(O)C[C@H](OC(=O)[C@H](O)[C@@H](NC(=O)c4ccccc4)c4ccccc4)C(C)=C1C3(C)C)[C@]1(OC(C)=O)CO[C@@H]1C[C@@H]2O + Cc1[nH]c2ccc(F)cc2c1-c1nc2c3cccnc3c3ncccc3c2[nH]1
Second compound 0.0316 µM
  IC50: > 10 µM
Second compound 0.1 µM
  IC50: > 10 µM
Second compound 0.316 µM
  IC50: > 10 µM
Second compound 1 µM
  IC50: > 10 µM
Second compound 3.16 µM
  IC50: < 0.0316 µM
Second compound 10 µM
  IC50: > 10 µM
[1]
  viability, T/C: 102%
[2]
  viability, T/C: 76.5%
[3]
  viability, T/C: 85.7%
[4]
  viability, T/C: 91.4%
[5]
  viability, T/C: 81.6%
[6]
  viability, T/C: 83.3%
[7]
  viability, T/C: 112%
[8]
  viability, T/C: 83.2%
[9]
  viability, T/C: 78%
[10]
  viability, T/C: 84.8%
[11]
  viability, T/C: 86.5%
[12]
  viability, T/C: 87%
[13]
  viability, T/C: 87.8%
[14]
  viability, T/C: 77.8%
[15]
  viability, T/C: 82.8%
[16]
  viability, T/C: 79.6%
[17]
  viability, T/C: 80.8%
[18]
  viability, T/C: 80.2%
[19]
  viability, T/C: 69.5%
[20]
  viability, T/C: 54.7%
[21]
  viability, T/C: 61.8%
[22]
  viability, T/C: 51.1%
[23]
  viability, T/C: 78.6%
[24]
  viability, T/C: 55.5%
[25]
  viability, T/C: 16.7%
[26]
  viability, T/C: 6.91%
[27]
  viability, T/C: 7.17%
[28]
  viability, T/C: 8.73%
[29]
  viability, T/C: 10%
[30]
  viability, T/C: 5.61%
[31]
  viability, T/C: 56.7%
[32]
  viability, T/C: 53.2%
[33]
  viability, T/C: 54.5%
[34]
  viability, T/C: 55%
[35]
  viability, T/C: 68.5%
[36]
  viability, T/C: 59.2%

## CC1COCCN1c1cc(-c2ccnn2C)c2ccnc(-c3ccn[nH]3)c2n1 (stereo not drawn) + CN(C)c1ccc(Nc2c3ccc(NC(=O)CCN4CCCC4)cc3nc3cc(NC(=O)CCN4CCCC4)ccc23)cc1
Second compound 0.0316 µM
  IC50: 7.55 µM
Second compound 0.1 µM
  IC50: 8.81 µM
Second compound 0.316 µM
  IC50: > 10 µM
Second compound 1 µM
  IC50: 2.12 µM
Second compound 3.16 µM
  IC50: 1.68 µM
Second compound 10 µM
  IC50: 1.28 µM
[1]
  viability, T/C: 91.5%
[2]
  viability, T/C: 85.6%
[3]
  viability, T/C: 71.7%
[4]
  viability, T/C: 65%
[5]
  viability, T/C: 53.7%
[6]
  viability, T/C: 48.7%
[7]
  viability, T/C: 99.8%
[8]
  viability, T/C: 87%
[9]
  viability, T/C: 70.9%
[10]
  viability, T/C: 67%
[11]
  viability, T/C: 48.1%
[12]
  viability, T/C: 51.9%
[13]
  viability, T/C: 95.7%
[14]
  viability, T/C: 76.4%
[15]
  viability, T/C: 86.9%
[16]
  viability, T/C: 64.5%
[17]
  viability, T/C: 52.7%
[18]
  viability, T/C: 48.6%
[19]
  viability, T/C: 86.8%
[20]
  viability, T/C: 68.5%
[21]
  viability, T/C: 63.8%
[22]
  viability, T/C: 53.6%
[23]
  viability, T/C: 50%
[24]
  viability, T/C: 42.1%
[25]
  viability, T/C: 87.5%
[26]
  viability, T/C: 74.8%
[27]
  viability, T/C: 72.7%
[28]
  viability, T/C: 54.9%
[29]
  viability, T/C: 41.8%
[30]
  viability, T/C: 39.5%
[31]
  viability, T/C: 74.2%
[32]
  viability, T/C: 72.3%
[33]
  viability, T/C: 52.8%
[34]
  viability, T/C: 59.5%
[35]
  viability, T/C: 39%
[36]
  viability, T/C: 36.2%
